Among the data in US7772265B2, “2-oxadiazolechromone derivatives” (Merck Patent GmbH, priority 2002, dated 2010) are IC50 values, retold here.

The target of assay [1] is Tie2 (Homo sapiens, UniProt Q02763). Put plainly: Tie2 inhibition. The class given is biochemical. The note with it: read-out: IC50 Tie2 inhibitor.
Assay [2] addresses PKB (Homo sapiens, UniProt P31749). The assay can be described thus: PKB inhibition (comparative measurement). The class given is biochemical. Particulars: read-out: IC50 PKB inhibitor.

Chain of PKB (P31749 whole entry, species assumed): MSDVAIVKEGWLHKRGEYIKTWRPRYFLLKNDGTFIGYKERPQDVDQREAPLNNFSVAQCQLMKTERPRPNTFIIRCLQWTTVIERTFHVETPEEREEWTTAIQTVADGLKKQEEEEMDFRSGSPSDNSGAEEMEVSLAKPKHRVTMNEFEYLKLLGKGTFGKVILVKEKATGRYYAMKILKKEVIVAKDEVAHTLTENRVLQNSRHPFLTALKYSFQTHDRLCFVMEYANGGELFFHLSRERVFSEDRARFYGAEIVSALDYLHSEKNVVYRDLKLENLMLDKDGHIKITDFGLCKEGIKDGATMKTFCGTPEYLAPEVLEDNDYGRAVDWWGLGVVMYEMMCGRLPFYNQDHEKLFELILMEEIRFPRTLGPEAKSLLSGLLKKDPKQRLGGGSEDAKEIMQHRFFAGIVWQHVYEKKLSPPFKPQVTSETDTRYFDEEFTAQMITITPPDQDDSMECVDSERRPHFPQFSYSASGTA
Chain of Tie2 (Q02763 23-1124, species assumed): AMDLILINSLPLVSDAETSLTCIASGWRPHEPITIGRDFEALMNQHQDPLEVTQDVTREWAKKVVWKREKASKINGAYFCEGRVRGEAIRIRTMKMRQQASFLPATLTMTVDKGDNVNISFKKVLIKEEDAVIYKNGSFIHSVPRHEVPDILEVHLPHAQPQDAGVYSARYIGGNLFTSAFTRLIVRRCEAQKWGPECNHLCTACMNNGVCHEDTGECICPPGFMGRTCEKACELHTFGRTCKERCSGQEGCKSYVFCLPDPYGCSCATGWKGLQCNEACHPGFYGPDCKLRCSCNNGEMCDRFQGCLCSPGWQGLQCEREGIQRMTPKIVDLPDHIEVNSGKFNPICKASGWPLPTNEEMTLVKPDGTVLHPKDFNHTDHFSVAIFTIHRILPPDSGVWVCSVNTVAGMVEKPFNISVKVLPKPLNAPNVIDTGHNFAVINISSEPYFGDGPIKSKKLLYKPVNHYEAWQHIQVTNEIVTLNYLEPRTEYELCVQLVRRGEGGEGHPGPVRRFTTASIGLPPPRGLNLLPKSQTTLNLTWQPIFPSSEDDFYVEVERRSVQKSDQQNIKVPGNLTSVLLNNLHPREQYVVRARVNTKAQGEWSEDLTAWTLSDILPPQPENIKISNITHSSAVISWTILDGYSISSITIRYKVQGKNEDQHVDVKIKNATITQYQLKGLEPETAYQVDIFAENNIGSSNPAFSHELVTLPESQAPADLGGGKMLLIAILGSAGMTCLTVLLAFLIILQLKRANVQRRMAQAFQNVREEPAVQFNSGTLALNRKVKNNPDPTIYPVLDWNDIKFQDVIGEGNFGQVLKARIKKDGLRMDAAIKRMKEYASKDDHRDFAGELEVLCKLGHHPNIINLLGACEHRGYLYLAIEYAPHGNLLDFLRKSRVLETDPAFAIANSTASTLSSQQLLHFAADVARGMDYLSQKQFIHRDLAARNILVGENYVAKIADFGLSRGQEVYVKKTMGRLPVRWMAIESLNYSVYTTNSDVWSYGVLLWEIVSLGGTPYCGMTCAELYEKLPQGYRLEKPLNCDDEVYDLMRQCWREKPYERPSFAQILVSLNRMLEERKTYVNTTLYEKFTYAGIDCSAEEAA

A word on the IC50: it is the concentration that gives 50% inhibition. On to `CC(C)(C)c1ccc(-c2noc(-c3cc(=O)c4cc(O)ccc4o3)n2)cc1` [6-hydroxy-2-[3-(4-tert-butylphenyl)-1,2,4-oxadiazol-5-yl]-chromone], for which the values for the IC50 in assay [1] and in assay [2] were at least 10 µM and over 30 µM, respectively.
